Test results taken from patent publication US9955691B2, “Macrocyclic picolinamides as fungicides” (DOW AGROSCIENCES LLC, priority 2014, dated 2018).
Where two headings read alike, the source gives them in different places.

Experiments:
Assay type in all cases: in vivo
Puccinia triticina = test: Fungicidal activity: Wheat Brown Rust (PUCCRT); conditions: for pest or weed control at 100 µg/mL: High Volume (100 ppm); for pest or weed control at 121.5 g/ha: Low Volume (121.5 g/H)
Method in brief: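 Wheat seedlings (Yuma, first leaf) sprayed to run-off with compound in acetone/water with Triton X-100, inoculated with Puccinia triticina before or after treatment. Held overnight in dark dew at 22° C, then greenhouse at 24° C; percent disease control from severity versus untreated plants.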

[1] = test system: Glomerella lagenarium; Anamorph: Colletotrichum lagenarium; test: Fungicidal activity: Cucumber Anthracnose (COLLLA); conditions: 100 ppm, 1 DP (1 Day Protectant)
Protocol: Technical grades of materials were dissolved in acetone, which were then mixed with nine volumes of water containing 110 ppm Triton X-100. The fungicide solutions were applied onto wheat seedlings using an automated booth sprayer to run-off. All sprayed plants were allowed to air dry prior to further handling. All fungicides were evaluated using the aforementioned method for their activity vs. all target diseases, unless stated otherwise. Wheat leaf blotch and brown rust activity were also evaluated using track spray applications, in which case the fungicides were formulated as EC formulations, containing 0.1% Trycol 5941 in the spray solutions. Wheat plants (variety Yuma) were grown from seed in a greenhouse in 50% mineral soil/50% soil-less Metro mix until the first leaf was fully emerged, with 7-10 seedlings per pot. These plants were inoculated with an aqueous spore suspension of Septoria tritici either prior to or after fungicide treatments. After inoculation the plants were kept in 100% relative humidity (one day in a dark dew chamber followed by two to three days in a lighted dew chamber at 20° C.) to permit spores to germinate and infect the leaf. The plants were then transferred to a greenhouse set at 20° C. for disease to develop. When disease symptoms were fully expressed on the 1st leaves of untreated plants, infection levels were assessed on a scale of 0 to 100 percent disease severity. Percent disease control was calculated using the ratio of disease severity on treated plants relative to untreated plants. Evaluation of Fungicidal Activity: Cucumber Anthracnose (Glomerella lagenarium; Anamorph: Colletotrichum lagenarium; Bayer Code COLLLA) Cucumber seedlings (variety Bush Pickle) were propagated in soil-less Metro mix, with each pot having one plant, and used in the test when 12 to 14 days old. Test plants were inoculated with an aqueous spore suspension of Colletotrichum lagenarium 24 hr after fungicide treatments. After inoculation the plants were kept in a dew room at 22° C. with 100% relative humidity for 48 hr to permit spores to germinate and infect the leaf. The plants were then transferred to a growth room set at 22° C. for disease to develop. Fungicide formulation, application and disease assessment on the sprayed leaves followed the procedures as described in the Example A.

Rhyncosporium secalis = test: Fungicidal activity: Barley Scald (RHYNSE); conditions: 100 ppm, 1 DP (1 Day Protectant)
Protocol: Technical grades of materials were dissolved in acetone, which were then mixed with nine volumes of water containing 110 ppm Triton X-100. The fungicide solutions were applied onto wheat seedlings using an automated booth sprayer to run-off. All sprayed plants were allowed to air dry prior to further handling. All fungicides were evaluated using the aforementioned method for their activity vs. all target diseases, unless stated otherwise. Wheat leaf blotch and brown rust activity were also evaluated using track spray applications, in which case the fungicides were formulated as EC formulations, containing 0.1% Trycol 5941 in the spray solutions. Wheat plants (variety Yuma) were grown from seed in a greenhouse in 50% mineral soil/50% soil-less Metro mix until the first leaf was fully emerged, with 7-10 seedlings per pot. These plants were inoculated with an aqueous spore suspension of Septoria tritici either prior to or after fungicide treatments. After inoculation the plants were kept in 100% relative humidity (one day in a dark dew chamber followed by two to three days in a lighted dew chamber at 20° C.) to permit spores to germinate and infect the leaf. The plants were then transferred to a greenhouse set at 20° C. for disease to develop. When disease symptoms were fully expressed on the 1st leaves of untreated plants, infection levels were assessed on a scale of 0 to 100 percent disease severity. Percent disease control was calculated using the ratio of disease severity on treated plants relative to untreated plants. Evaluation of Fungicidal Activity: Barley Scald (Rhyncosporium secalis; Bayer Code […]) Barley seedlings (variety Harrington) were propagated in soil-less Metro mix, with each pot having 8 to 12 plants, and used in the test when first leaf was fully emerged. Test plants were inoculated by an aqueous spore suspension of Rhyncosporium secalis 24 hr after fungicide treatments. After inoculation the plants were kept in a dew room at 20° C. with 100% relative humidity for 48 hr. The plants were then transferred to a greenhouse set at 20° C. for disease to develop. Fungicide formulation, application and disease assessment on the sprayed leaves followed the procedures as described in the Example A.

[2] = 24 h, 1 Day Protectant, read-out: PUCCRT 1 DP disease control
[3] = 72 h, 3 Day Curative, read-out: PUCCRT 3 DC disease control

| Compound | pest or weed control at 100 µg/mL (Puccinia triticina; [2]) | pest or weed control at 121.5 g/ha (Puccinia triticina; [2]) | pest or weed control at 100 µg/mL (Puccinia triticina; [3]) | pest or weed control at 121.5 g/ha (Puccinia triticina; [3]) | COLLLA disease control rating [1] | RHYNSE disease control rating (Rhyncosporium secalis) |
| --- | --- | --- | --- | --- | --- | --- |
| COc1ccnc(C(=O)N[C@H]2COC[C@H](Cc3ccccc3)[C@@H](Cc3ccccc3)[C@H](C)OC2=O)c1OCOC(C)=O [Cmpd. 3, ((2-(((3S,7R,8R,9S)-7,8-dibenzyl-9-methyl-2-oxo-1,5-dioxonan-3-yl)carbamoyl)-4-methoxypyridin-3-yl)oxy)methyl acetate] | > 70% | > 70% | < 70% | > 70% | A (>70) |  |
| CCCC[C@@H]1[C@@H](Cc2ccccc2)COC[C@H](NC(=O)c2nccc(OC)c2OCOC(=O)C(C)C)C(=O)O[C@H]1C [compound 1] | > 70% | > 70% | > 70% | < 70% | A (>70) | A (>70) |
| COc1ccnc(C(=O)N[C@H]2COC[C@H](c3ccccc3)[C@@H](c3ccccc3)[C@H](C)OC2=O)c1OCOC(C)=O [compound 7] | > 70% | > 70% | > 70% | > 70% | A (>70) |  |
| CCCC[C@@H]1[C@@H](Cc2ccc(C(F)(F)F)cc2)COC[C@H](NC(=O)c2nccc(OC)c2OCOC(C)=O)C(=O)O[C@H]1C [compound 16] |  | > 70% |  | > 70% | A (>70) | A (>70) |
| COc1ccnc(C(=O)N[C@H]2COC[C@H](Cc3ccccc3)[C@@H](Cc3ccccc3)[C@H](C)OC2=O)c1OC(C)=O [compound 27] |  | > 70% |  | > 70% | A (>70) | A (>70) |
| COc1ccnc(C(=O)N[C@H]2COC[C@H](CC3CC3)[C@@H](c3ccccc3)[C@H](C)OC2=O)c1OC(C)=O [compound 100] |  | > 70% |  | > 70% | A (>70) | B (≤70) |
